The conditions of test [1]: Wigglesworth, J. Ins. Physiol. 9, 105 (1963); cited from earlier work.
Test [2] has as its system Tenebrio molitor pupae. The test is described as follows: topical application to Tenebrio molitor pupae, maturation inhibition. The format is in vivo. In short, it runs like this:
(§1)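 Compounds applied topically, 1 μL acetone solution at 10%, 1% or 0.5%, to ten specimens per insect per concentration, alongside acetone and untreated controls; scored after about 8–10 days. Juvenile/adult characteristics rated 0–3 (Tenebrio 0–4), ≥2 meaning unable to reproduce; unreported specimens died during metamorphosis.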

In test [3] the test system is alfalfa weevil larvae. The experiment in a line: topical application to alfalfa weevil larvae. It counts as in vivo. Conditions: 10 percent solution in acetone, all controls reached normal adulthood. From the text: A number of compounds were applied topically to alfalfa weevil larvae as a 10 percent solution in acetone. Acetone and nontreated controls were also run. Ten larvae were used in each test. The number of normal adults emerging from the larvae was observed. In each case, all the acetone and nontreated controls reached normal adulthood. The number of normal adults from treated larvae are reported below.

In test [4] the test system is milkweed bug. The experiment in a line: topical application to milkweed bug, fourth nymphal stage, maturation inhibition. The format is in vivo. Conditions: rating scale 0-3. In short, it runs like this: as §1
Test [5] relates to Mexican bean beetle. The experiment in a line: topical application to Mexican bean beetle, fourth larval stage, maturation inhibition. It counts as in vivo. Conditions: rating scale 0-3. In short, it runs like this:
as §1

Test [6] has as its system wax moth. The test is described as follows: topical application to wax moth, fifth larval stage, maturation inhibition. It counts as in vivo. The procedure, abridged: as §1
The mark [7] stands for this setting: 10% in acetone, 1 microliter topical, rating scale 0 (no effect) to 3 (maximum).

“9-(2-furyl)-2,6-dimethyl-2,6-nonadiene [dendrolasin]”: the juvenile hormone activity result in test [1] is on record as “some juvenile hormone activity”.

As to `CC(C)=CCCC(C)=CCCc1ccc2c(c1)OCCO2` [9-(3,4-ethylenedioxyphenyl)-2,6-dimethyl-2,6-nonadiene], the “number of specimens in rating 4” value in test [2] (0.5%, rating scale 0-4) stood at 10 specimens; in test [2] (1%, rating scale 0-4) it was 8 specimens; in test [2] (10%, rating scale 0-4) it was 10 specimens. The “number of specimens in rating 3” value in test [2] (1%, rating scale 0-4) turned out to be 2 specimens. In test [3], the “Number of Adults (normal adults from ten treated larvae)” value (“Number of Adults” for short) was found to be 7.

Consider `COc1ccc(CCC=C(C)CCC=C(C)C)cc1OC` [2,6-DIMETHYL-9-(3,4-DIMETHOXYPHENYL)-2,6-NONADIENE], for which the “number of specimens in rating 0” value is on record as 8 specimens in test [4] (0.5%); 8 specimens in test [4] (1%); 10 specimens in test [5] (0.5%); 10 specimens in test [5] (1%); 10 specimens in test [2] (0.5%, rating scale 0-4); 4 specimens in test [2] (1%, rating scale 0-4). Moreover, the “number of specimens in rating 0” value in test [2] (10% in acetone, 1 microliter topical, rating scale 0 (no effect) to 4 (maximum)) is on record as 2 specimens; in test [6] (0.5%, rating scale 0-3) it was 10 specimens; in test [6] (1%, rating scale 0-3), 10 specimens; in test [6] (setting [7]), 10 specimens. Moreover, the “number of specimens in rating 2” value in test [4] (10%) stood at 3 specimens; in test [2] (10%, rating scale 0-4) it was 3 specimens. Besides, the “number of specimens in rating 3” value in test [4] (10%) was determined as 2 specimens. Also, the “number of specimens in rating 1” value in test [5] (10%) is reported as 3 specimens; in test [2] (1%, rating scale 0-4), 5 specimens; in test [2] (10%, rating scale 0-4), 5 specimens. Further, the “Number of Adults” value in test [3] amounted to 5.

In the case of `COc1cccc(CCC=C(C)CCC=C(C)C)c1` [2,6-DIMETHYL-9-(3-METHOXYPHENYL)-2,6-NONADIENE], the “number of specimens in rating 0” value in test [4] (0.5%) came out at 3 specimens; in test [5] (0.5%) it was 10 specimens; in test [5] (1%), 10 specimens; in test [6] (0.5%, rating scale 0-3) it was 10 specimens; in test [6] (1%, rating scale 0-3), 9 specimens; in test [6] (setting [7]), 9 specimens. The “number of specimens in rating 1” value in test [4] (0.5%) was 3 specimens; in test [4] (1%) it was 1 specimens. Besides, the “number of specimens in rating 2” value was 4 specimens in test [4] (0.5%); 5 specimens in test [4] (1%); 1 specimens in test [6] (10%, rating scale 0-3). Moreover, the “number of specimens in rating 3” value in test [4] (1%) is recorded as 3 specimens; in test [4] (10%), 9 specimens; in test [5] (10%), 3 specimens; in test [2] (0.5%, rating scale 0-4) it was 1 specimens. Further, the “number of specimens in rating 4” value in test [2] (0.5%, rating scale 0-4) was determined as 9 specimens; in test [2] (1%, rating scale 0-4), 10 specimens; in test [2] (10%, rating scale 0-4), 10 specimens. Besides, the “Number of Adults” value in test [3] was found to be 6.
